Reference: ChEMBL document CHEMBL1201862, “PubChem BioAssay data set” (2004)
Activity calls are given as the source filed them.

How the values were obtained:
[1] = test system: HEK293; test: cells; type: functional, cell-based; conditions: Homo sapiens
[2] = test system: HEK293; test: inhibition of NOD1-driven NF-kB reporter – cell-based, luminescence, uHTS, primary screen (AID 1578); type: functional; conditions: Homo sapiens
[3] = test system: HEK293; test: cells; type: functional, cell-based; conditions: Homo sapiens; remark: listed apart in the source
[4] = NIH-3T3 fibroblast cytotoxicity, dose response, cytotoxicity control, cell-based, fluorescence, Alamar Blue, secondary assay (AID 2327); type: functional;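 further: NIH-3T3 mouse fibroblasts cultured with fluconazole at 8 µg/mL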
[5] = fluconazole-exposed Candida albicans growth modulators – fluorescence, retest, confirmation (AID 2467); type: functional, cell-based
[6] = test system: INS1; test: INS-1E survival protection against cytokine death – cell-based, luminescence, retest, dose response (AID 449756); type: functional; conditions: Rattus norvegicus, INS1;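 further: cell death triggered by IL-1 beta plus TNF-alpha plus IFN-gamma mixture; protective hits raise ATP signal compared with cytokine alone wells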
[7] = molecular target: Nucleotide-binding oligomerization domain-containing protein 2 (Homo sapiens, UniProt Q9HC29); test: inhibition of NOD2-driven NF-kB reporter – cell-based, luminescence, uHTS, HEK293 (AID 1566); type: functional
[8] = test system: HEK293; test: cells; type: functional, cell-based; conditions: Homo sapiens; remark: listed apart in the source
[9] = HEK-293T cell viability reduction – luminescence, B-cell screen hits, cytotoxicity control for BCR NF-kB inhibitor project, dose response (AID 489021); type: functional, cell-based;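 further: HEK-293T cells carrying an NF-kB luciferase reporter; cells exposed to compound for about 14 hours before viability readout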
[10] = test system: HEK293; test: NOD2 signaling inhibitors in MDP-stimulated cells, cell-based, uHTS, luminescence (AID 2001); type: functional; conditions: Homo sapiens
[11] = molecular target: Neutrophil collagenase (Homo sapiens, UniProt P22894); test: potency against MMP13, MMP2, MMP3, MMP14 – biochemical, probe development, late stage results, selectivity assay for MMP13 inhibitor project, late-stage follow-up, panel member MMP-8 [IC50 Assay] (AID 2067)
[12] = microbe, parasite or virus in culture; type: functional; conditions: Mycobacterium tuberculosis
[13] = molecular target: T1, High affinity choline transporter 1 (Homo sapiens, UniProt Q9GZV3); test: human choline transporter blockers, potency – cell-based, 5-point CRC, membrane potential dye, dose response (AID 504840); type: functional
T1 sequence (Q9GZV3 whole entry): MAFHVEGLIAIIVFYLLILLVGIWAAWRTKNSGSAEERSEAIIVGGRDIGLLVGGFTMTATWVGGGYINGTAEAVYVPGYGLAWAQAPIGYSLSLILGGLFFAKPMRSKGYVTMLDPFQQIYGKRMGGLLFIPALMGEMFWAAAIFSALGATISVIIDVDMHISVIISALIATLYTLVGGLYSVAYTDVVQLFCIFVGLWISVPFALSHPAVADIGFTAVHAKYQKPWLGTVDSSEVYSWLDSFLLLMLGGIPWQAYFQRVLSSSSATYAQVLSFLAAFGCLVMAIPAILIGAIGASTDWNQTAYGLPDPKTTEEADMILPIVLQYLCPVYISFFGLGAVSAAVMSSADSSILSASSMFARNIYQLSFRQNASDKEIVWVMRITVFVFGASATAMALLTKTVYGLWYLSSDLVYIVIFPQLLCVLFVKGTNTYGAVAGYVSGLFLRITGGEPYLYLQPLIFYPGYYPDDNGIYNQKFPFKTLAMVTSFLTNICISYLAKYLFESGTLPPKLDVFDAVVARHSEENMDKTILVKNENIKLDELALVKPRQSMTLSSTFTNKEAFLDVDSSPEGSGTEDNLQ

[14] = molecular target: Neurotensin receptor type 1 (Homo sapiens, UniProt P30989); type: functional;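 further: Image-based confirmatory dose-response assay measuring agonist activity at NTR1; NTR1-expressing U2OS osteosarcoma cells imaged for beta-arrestin GFP spot formation; agonist potency where compounds increase beta-arrestin recruitment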
Chain of Neurotensin receptor type 1 (P30989 whole entry): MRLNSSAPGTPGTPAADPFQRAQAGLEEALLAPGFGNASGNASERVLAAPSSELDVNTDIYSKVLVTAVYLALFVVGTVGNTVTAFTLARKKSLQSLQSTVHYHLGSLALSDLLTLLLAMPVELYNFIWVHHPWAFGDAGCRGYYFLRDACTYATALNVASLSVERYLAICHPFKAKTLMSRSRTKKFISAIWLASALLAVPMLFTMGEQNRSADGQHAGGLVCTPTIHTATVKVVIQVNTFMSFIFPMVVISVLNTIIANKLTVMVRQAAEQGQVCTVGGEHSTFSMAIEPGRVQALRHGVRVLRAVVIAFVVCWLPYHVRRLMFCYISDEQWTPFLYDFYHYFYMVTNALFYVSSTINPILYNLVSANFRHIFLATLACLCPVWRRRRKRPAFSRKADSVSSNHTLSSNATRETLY

[15] = cells; type: functional, cell-based; conditions: PPC-1
[16] = test system: MDA-MB-435; test: cells; type: functional, cell-based; conditions: Homo sapiens
[17] = molecular target: DNA damage-inducible transcript 3 protein (Mus musculus, UniProt P35639); type: functional, Cricetulus griseus
Chain of DNA damage-inducible transcript 3 protein (P35639 whole entry): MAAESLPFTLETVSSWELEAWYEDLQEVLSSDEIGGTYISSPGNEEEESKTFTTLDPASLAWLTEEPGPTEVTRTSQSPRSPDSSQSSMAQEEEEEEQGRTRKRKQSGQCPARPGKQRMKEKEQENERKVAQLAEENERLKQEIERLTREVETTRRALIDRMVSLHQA

[18] = molecular target: X-box-binding protein 1 (Homo sapiens, UniProt P17861); type: functional, Cricetulus griseus;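 further: confirmatory dose-response counter-screen serving a CHOP assay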
Chain of X-box-binding protein 1 (P17861 whole entry, the tested form may be a part): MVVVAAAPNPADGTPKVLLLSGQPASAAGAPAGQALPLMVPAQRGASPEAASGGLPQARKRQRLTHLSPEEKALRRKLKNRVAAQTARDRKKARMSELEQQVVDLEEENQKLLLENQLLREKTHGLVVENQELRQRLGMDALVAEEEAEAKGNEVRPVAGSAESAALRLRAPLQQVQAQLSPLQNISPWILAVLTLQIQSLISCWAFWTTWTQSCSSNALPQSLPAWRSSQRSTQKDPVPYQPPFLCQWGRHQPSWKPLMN

[19] = molecular target: NACHT, LRR and PYD domains-containing protein 3 (Homo sapiens, UniProt Q96P20); test: NALP3 inhibitors in yeast, dose response, luminescent (AID 488799); type: functional
[20] = Cytotoxicity screening for potential Inhibitors of Bacterial Capsule Biogenesis. [Related pubchem assays (depositor defined):AID488970]; type: functional
[21] = protection from phage-mediated lysis, alamar blue read-out – E. coli UTI89, K1F phage, bacterial capsule biogenesis inhibitors (AID 488966); type: functional
[22] = molecular target: Voltage-dependent T-type calcium channel subunit alpha-1H (Homo sapiens, UniProt O95180); test: human CACNA1H calcium influx blockade – cell-based, synthetic library set 1, calcium flux (AID 493022); type: functional
[23] = blockers of SFLLRN-triggered platelet ATP secretion – cell-based, human platelets, luminescence, dry powder, dose response (AID 493100); type: functional
[24] = molecular target: Luciferin 4-monooxygenase (Photinus pyralis, UniProt P08659); test: inhibition of purified Photinus pyralis luciferase – biochemical, luminescence, dose response (AID 1891)
Chain of Luciferin 4-monooxygenase (P08659 whole entry): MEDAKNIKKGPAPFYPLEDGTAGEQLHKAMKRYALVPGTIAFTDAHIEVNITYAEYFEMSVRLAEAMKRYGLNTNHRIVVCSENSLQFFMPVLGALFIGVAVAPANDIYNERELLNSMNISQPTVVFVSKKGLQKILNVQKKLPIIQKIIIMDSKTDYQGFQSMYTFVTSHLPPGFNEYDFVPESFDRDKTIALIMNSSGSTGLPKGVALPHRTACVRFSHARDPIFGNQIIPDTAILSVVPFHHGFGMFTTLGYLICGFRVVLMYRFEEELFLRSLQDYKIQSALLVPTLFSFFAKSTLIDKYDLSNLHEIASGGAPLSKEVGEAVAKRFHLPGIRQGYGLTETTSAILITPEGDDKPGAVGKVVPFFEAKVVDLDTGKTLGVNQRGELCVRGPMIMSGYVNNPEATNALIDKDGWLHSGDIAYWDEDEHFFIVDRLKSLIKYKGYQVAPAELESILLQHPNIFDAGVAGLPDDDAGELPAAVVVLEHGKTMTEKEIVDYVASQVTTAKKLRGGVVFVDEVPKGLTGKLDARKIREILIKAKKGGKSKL

[25] = Luminescence Cell-Based Dose Confirmation HTS to Identify Inhibitors of Platelet Dense Granule Release. [Related pubchem assays: 1663 (Primary HTS), 1678 (Summary of Project)]; type: functional
[26] = molecular target: Metabotropic glutamate receptor 4 (Homo sapiens, UniProt Q14833); test: Modulation of the Metabotropic Glutamate Receptor mGluR4: Potency at human mGluR4. Modulation of intracellular Ca2+ using Fluo-4, AM, in CHO expressing recombinant receptor [Related pubchem assays (depositor defined):AID2437, AID2807]; type: functional, cell-based
Chain of Metabotropic glutamate receptor 4 (Q14833 whole entry): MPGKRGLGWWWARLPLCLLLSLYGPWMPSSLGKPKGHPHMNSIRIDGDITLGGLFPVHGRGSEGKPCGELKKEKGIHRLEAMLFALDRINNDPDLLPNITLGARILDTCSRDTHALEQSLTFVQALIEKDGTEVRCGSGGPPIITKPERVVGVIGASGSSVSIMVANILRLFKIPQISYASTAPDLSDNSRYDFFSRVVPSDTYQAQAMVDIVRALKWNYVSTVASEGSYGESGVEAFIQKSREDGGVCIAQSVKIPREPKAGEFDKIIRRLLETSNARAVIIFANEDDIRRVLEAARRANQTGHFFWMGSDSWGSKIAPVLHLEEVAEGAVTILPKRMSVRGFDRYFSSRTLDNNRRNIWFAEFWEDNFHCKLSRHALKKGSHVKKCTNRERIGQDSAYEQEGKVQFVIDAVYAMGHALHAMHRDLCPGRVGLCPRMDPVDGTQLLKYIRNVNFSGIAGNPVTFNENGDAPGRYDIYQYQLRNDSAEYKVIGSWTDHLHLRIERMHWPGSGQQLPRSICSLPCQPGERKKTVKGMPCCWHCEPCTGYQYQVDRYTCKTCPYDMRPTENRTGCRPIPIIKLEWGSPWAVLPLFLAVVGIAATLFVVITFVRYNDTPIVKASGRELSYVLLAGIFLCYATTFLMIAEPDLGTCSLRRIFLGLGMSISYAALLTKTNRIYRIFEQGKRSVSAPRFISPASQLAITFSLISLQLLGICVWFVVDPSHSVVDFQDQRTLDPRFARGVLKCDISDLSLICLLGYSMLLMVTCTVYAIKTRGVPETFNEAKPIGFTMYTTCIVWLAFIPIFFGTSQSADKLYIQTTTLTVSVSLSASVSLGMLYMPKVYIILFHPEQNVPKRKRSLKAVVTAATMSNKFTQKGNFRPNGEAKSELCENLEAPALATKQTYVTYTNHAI

[27] = molecular target: T2, Replicative DNA helicase DnaB (Mycobacterium tuberculosis, UniProt P9WMR3); test: DnaB intein splicing inhibitors, dose response, biochemical, cell-free fluorescence (AID 449749); type: functional
T2 sequence (P9WMR3 whole entry): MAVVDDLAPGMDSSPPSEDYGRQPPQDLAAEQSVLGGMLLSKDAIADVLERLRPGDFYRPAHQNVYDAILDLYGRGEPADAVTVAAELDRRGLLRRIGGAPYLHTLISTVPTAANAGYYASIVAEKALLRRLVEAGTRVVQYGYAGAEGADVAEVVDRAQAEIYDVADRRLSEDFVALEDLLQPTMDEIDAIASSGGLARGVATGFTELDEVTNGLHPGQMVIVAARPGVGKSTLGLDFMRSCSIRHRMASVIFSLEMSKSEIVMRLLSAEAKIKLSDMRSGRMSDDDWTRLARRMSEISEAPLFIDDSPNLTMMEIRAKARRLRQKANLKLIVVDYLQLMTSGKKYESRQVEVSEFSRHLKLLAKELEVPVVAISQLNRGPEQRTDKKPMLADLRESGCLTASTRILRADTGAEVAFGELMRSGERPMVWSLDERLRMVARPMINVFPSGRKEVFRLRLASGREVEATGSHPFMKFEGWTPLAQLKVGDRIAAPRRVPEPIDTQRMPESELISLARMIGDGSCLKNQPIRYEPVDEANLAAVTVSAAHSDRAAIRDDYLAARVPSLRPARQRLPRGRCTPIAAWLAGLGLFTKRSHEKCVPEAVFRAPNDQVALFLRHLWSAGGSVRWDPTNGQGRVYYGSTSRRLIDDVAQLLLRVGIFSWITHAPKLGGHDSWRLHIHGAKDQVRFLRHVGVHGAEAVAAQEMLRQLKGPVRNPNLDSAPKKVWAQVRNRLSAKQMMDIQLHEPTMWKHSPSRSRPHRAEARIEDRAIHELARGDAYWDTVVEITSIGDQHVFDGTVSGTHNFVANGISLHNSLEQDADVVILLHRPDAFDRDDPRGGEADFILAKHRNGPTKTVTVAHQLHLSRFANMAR

[28] = molecular target: T3, SUMO-activating enzyme (Homo sapiens, UniProt Q9UBT2); test: blockers of SAE1/SAE2–UBC9 SUMO transfer – biochemical, HTRF, uHTS, primary screen (AID 2006); type: protein-complex assay
T3 sequence (Q9UBE0 whole entry): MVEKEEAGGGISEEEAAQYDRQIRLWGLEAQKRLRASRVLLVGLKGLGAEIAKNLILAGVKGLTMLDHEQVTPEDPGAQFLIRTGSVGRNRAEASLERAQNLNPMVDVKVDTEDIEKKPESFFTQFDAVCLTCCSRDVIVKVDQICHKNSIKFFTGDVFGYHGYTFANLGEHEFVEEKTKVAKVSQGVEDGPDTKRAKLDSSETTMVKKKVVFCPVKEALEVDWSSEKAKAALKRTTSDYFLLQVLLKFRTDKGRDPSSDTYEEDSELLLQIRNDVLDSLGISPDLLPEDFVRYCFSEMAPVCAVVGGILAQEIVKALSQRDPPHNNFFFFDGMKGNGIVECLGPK
T3 sequence (Q9UBT2 whole entry): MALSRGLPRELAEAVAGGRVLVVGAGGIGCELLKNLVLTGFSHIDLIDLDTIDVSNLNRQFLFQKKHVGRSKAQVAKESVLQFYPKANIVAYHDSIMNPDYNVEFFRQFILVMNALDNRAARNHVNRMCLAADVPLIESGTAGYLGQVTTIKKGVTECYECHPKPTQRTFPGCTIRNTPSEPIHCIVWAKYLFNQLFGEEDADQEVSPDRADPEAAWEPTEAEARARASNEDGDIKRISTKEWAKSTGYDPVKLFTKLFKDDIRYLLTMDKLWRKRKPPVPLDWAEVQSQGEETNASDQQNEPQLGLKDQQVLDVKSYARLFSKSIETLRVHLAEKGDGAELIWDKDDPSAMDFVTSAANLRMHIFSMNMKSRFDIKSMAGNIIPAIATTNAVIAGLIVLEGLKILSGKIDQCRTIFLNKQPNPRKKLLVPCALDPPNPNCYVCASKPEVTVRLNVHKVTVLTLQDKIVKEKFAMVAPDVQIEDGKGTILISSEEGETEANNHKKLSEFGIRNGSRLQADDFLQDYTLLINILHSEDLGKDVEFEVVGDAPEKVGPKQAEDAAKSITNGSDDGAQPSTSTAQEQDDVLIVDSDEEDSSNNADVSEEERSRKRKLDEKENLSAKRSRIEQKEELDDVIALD

[29] = molecular target: T3, SUMO-activating enzyme; test: blockers of UBC9-mediated SUMO conjugation – biochemical, AlphaScreen, SUMOylation inhibitor project, confirmation (AID 2018); type: functional
[30] = molecular target: Genome polyprotein (dengue virus type 2, UniProt P29990); test: flavivirus cap methylation enzyme inhibition – biochemical, confirmation dose response, primary screen (AID 588689); type: functional
Chain of Genome polyprotein (P29990 2492-3391 limits assumed): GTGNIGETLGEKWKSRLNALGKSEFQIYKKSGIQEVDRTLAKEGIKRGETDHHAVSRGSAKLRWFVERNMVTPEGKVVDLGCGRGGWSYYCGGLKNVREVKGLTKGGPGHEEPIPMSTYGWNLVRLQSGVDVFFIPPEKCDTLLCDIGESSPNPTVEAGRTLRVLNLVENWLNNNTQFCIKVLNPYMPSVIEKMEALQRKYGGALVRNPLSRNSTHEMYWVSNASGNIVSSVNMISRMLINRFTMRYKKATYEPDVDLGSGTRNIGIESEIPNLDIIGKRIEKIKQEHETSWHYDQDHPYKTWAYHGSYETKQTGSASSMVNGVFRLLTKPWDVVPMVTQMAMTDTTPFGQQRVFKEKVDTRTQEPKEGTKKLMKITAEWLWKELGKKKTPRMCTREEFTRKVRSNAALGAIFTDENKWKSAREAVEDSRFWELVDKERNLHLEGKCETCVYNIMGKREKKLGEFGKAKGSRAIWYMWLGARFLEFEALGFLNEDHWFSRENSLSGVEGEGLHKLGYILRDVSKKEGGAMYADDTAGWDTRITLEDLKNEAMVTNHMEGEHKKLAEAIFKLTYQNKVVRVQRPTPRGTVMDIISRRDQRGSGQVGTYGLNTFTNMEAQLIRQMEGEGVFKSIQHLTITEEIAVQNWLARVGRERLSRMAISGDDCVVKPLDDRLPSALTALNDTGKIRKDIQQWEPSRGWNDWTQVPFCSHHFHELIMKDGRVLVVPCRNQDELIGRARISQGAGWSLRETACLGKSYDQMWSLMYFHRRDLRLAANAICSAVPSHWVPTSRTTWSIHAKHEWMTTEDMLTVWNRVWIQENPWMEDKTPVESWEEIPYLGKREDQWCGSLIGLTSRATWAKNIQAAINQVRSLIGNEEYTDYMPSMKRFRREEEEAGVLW

[31] = molecular target: T4, Protein RecA (Mycobacterium tuberculosis, UniProt P9WHJ3); test: Fluorescence Cell-Free Homogeneous Dose Retest to Identify Inhibitors of RecA-Intein Splicing Activity. [Related pubchem assays (depositor defined):AID2097, AID2223, AID489010, AID492950]; type: functional
T4 sequence (P9WHJ3 whole entry): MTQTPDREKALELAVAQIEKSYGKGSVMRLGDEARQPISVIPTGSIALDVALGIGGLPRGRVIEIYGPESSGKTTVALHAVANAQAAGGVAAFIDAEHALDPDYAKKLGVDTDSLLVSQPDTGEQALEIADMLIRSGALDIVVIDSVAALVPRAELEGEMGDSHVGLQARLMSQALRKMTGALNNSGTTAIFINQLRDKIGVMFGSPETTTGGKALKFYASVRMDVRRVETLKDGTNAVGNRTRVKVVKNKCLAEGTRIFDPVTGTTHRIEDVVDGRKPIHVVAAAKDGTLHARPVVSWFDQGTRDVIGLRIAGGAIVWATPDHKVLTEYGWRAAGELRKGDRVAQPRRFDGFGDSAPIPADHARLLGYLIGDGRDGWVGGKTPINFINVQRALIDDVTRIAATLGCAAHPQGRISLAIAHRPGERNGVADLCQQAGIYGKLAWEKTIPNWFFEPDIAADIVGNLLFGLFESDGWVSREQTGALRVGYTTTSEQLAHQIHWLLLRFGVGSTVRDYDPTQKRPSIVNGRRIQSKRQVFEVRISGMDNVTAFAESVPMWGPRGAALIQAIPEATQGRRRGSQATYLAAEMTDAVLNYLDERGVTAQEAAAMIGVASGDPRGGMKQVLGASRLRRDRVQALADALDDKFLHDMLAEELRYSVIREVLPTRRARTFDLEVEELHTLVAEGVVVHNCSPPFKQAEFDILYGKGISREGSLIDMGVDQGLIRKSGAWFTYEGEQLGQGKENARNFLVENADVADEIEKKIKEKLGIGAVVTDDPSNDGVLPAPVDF

[32] = molecular target: Envelope glycoprotein gp160 (Human immunodeficiency virus 1, UniProt Q6QLK5); test: cell-free HIV fusion peptide-binding blockers – biochemical, uHTS, fluorescence dequenching, […] (AID 1986)
Chain of Envelope glycoprotein gp160 (Q6QLK5 whole entry, the tested form may be a part): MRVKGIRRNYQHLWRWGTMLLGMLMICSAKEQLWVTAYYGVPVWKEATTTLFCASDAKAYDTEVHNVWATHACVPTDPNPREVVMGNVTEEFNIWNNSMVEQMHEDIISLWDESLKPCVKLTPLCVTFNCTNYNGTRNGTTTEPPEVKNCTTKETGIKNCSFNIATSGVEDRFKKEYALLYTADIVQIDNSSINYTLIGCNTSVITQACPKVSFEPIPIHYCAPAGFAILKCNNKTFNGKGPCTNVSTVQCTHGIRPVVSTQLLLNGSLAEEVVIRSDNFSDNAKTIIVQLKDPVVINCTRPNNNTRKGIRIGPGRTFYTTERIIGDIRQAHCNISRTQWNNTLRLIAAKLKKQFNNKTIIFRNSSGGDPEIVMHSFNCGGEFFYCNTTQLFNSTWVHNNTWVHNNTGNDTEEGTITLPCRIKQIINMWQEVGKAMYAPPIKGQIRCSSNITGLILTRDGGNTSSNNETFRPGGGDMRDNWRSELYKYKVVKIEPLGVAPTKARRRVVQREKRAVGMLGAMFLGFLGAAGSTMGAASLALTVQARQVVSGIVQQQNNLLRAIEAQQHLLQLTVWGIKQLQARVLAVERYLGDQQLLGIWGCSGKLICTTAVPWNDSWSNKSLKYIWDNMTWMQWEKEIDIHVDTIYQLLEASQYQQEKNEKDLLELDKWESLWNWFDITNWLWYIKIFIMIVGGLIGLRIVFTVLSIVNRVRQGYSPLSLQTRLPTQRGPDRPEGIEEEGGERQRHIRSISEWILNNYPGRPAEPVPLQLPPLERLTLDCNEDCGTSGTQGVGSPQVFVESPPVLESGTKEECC

[33] = molecular target: Cytochrome P450 3A4 (Homo sapiens, UniProt P08684); conditions: Potency;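 further: confirmatory qHTS run detecting inhibitors and substrates of CYP3A4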

COc1ccc(-c2n(Cc3ccccc3)c3ccccc3[n+]2Cc2ccccc2)cc1
IC50 [1]: 11.7 µM (active)
EC50 [2]: 4.23 µM (active)
IC50 [3]: 1.21 µM (active)
EC50 [4]: > 150 µM (inactive)
EC50 [5]: > 38 µM (not active)
AC50 [6]: 3.85 µM (active)
EC50 [7]: 9.35 µM (active)
IC50 [8]: > 20 µM (inactive)
IC50 [9]: > 80 µM (inactive)
IC50 [10]: 3.69 µM (active)

Cc1ccc(CSc2nc3c(c(=O)[nH]2)CCC3)cc1
IC50 [11]: > 39.8 µM (inactive)

COc1ccc(C(CCN2CCCCC2)c2c(OC)cc(OC)c3c(-c4ccccc4)cc(=O)oc23)cc1 (stereo not given)
CC50 [12]: 20.5 µM (active)
IC50 [13]: 12.6 µM (active)
EC50 [14]: 14.7 µM (active)
AC50 [6]: 10.7 µM (active)

CSc1nc(-c2ccccc2)nc(C(C)C)n1
IC50 [15]: > 10 µM (inactive)
IC50 [16]: > 10 µM (inactive)

O=C(Nc1cccc(C(F)(F)F)c1)NC1CCN(S(=O)(=O)c2ccc(F)cc2)CC1
Absolute IC50 (CHOP) [17]: 10 µM
Absolute IC50 (XBP1) [18]: 10 µM

Cc1onc(-c2ccccc2Cl)c1C(=O)N1C=CC(C(F)(F)F)=NCC1
IC50 [19]: 8.66 µM (active)

Cc1ccc(C2c3c(oc4cc(C)c(C)cc4c3=O)C(=O)N2CCCN2CCOCC2)cc1 (stereo not given)
CC50 [20]: 44.4 µM (active)

O=C(Nc1ccc(N2CCOCC2)cc1)c1ccc2ncsc2c1
IC50 [21]: > 150 µM (active)

O=C(COc1ccc(F)cc1)Nc1nnc(-c2ccc3c(c2)OCO3)o1
EC50 [22]: 10 µM (active)

CCCC(=O)Nc1cccc(NC(=O)c2ccccc2F)c1
AC50 [23]: 31.5 µM (active)

COc1ccc(NC(=O)c2ccccn2)cc1OC
EC50 [24]: > 112 µM (not active)
EC50 [25]: 42.7 µM (active)
EC50 [26]: 3.65 µM (active)

CCCCCc1c2c(cc(O)c1C(=O)O)OC(=O)c1c(cc(OC)cc1C(=O)CCCC)O2 [LOBARIC ACID]
AC50 [27]: 6.47 µM (active)
IC50 [28]: 15.3 µM (active)
IC50 [29]: 6.52 µM (active)
IC50 [13]: 11 µM (active)
IC50 [30]: 32.2 µM (active)
EC50 [31]: 4.98 µM (active)
IC50 [32]: 13.1 µM (active)
AC50 [33]: 25.1 µM (inconclusive)
